Measured values as given in US7941211B2, “Preloading with macular pigment to improve photodynamic treatment of retinal vascular disorders” (ZeaVision, LLC., priority 2003, dated 2011).
“Also recorded” adds a separate entry of the source.

Key:
inflammatory cytokines = conditions: cited from earlier work
retina = conditions: in vivo, po; cited from earlier work
[1] = biological target: Pi isoform of glutathione-S-transferase (GSTP1) (Homo sapiens, UniProt P09211); conditions: in vitro conditions; cited from earlier work
[2] = even at very high dosages; cited from earlier work
[3] = test system: wet macular degeneration (subfoveal CNV); experiment: Case report: zeaxanthin pre-loading before verteporfin-laser PDT (Example 1); assay type: in vivo, human
From the text: Such a candidate became known to the Applicant, in mid to late 2003. Because of certain personal and business connections, they were contacted by a person, who had been told that (i) […] eyesight was deteriorating rapidly, due to macular degeneration, and (ii) they should take care of any business, financial, legal, and other matters as soon as possible, before […] eyesight became even worse. This person made their plight (and their severe depression, due to the very negative prognosis they had received from an expert) known to the Applicant. In response, the Applicant informed the patient that they (the Applicant) had made a number of charitable donations to support research at the Johns Hopkins School of Medicine, where some of the world's foremost experts in macular degeneration work. […] (the Applicant) offered to see whether they could obtain expedited treatment for the patient, by making some phone calls to people they knew who worked there. The patient accepted that offer, and was seen and treated not long thereafter, by a top expert at the Wilmer Eye Institute, a highly respected eye care and research institute affiliated with Johns Hopkins.
This patient had been taking zeaxanthin for a number of weeks, prior to being examined and treated at the Wilmer Eye Institute. Their dosage was believed to be 20 milligrams per day, from taking two 10 milligram capsules (purchased from ZeaVision LLC) per day, usually with meals. They also took various other vitamin supplements during the course of their treatment, and afterwards.
An adult at the time, was suffering from wet macular degeneration.
At about that time, the patient began taking zeaxanthin supplements. It is believed that their typical daily dosage was 20 milligrams, from two 10 milligram capsules per day, usually taken with meals. The patient is also believed to have taken various other nutritional supplements during the relevant span of time, although their full contents, dosages, and durations are not known.
According to notes created by the ophthalmologist at the Wilmer Institute, obtained by the Applicant with approval from the patient, the patient suffered from subfoveal CNV in their right eye. […] According to the patient, the ophthalmologist advised them that their course of treatment likely would require 5 or 6 verteporfin-laser treatments, over a span of up to about 2 years.
His left eye was similar in appearance but questionable in extent, and there was no proven disease progression. Therefore, the ophthalmologist recommended careful monitoring but no PDT at that time.
Despite that advice, the patient continued taking zeaxanthin.

wet macular degeneration = experiment: ZeaVision customer survey: zeaxanthin supplements and PDT treatment (Example 2); assay type: in vivo, human
From the text: In the summer of 2004, the assignee company (ZeaVision LLC) began searching for customers who were: (i) taking zeaxanthin supplements they had purchased from ZeaVision, and (ii) had received one or more PDT treatments, for wet macular degeneration. They did this by sending postcards to customers, asking them to contact ZeaVision if they had received PDT treatment. Those customers who responded were briefly interviewed by phone by the customer support staff, who asked questions and filled in a worksheet that had been prepared to help guide the interviews. Most of these patients with age-related eye problems are in their 70's or 80's. They could not always provide exact dates when talking from memory during a phone call, and no efforts were made to check their actual medical records, or to consult with the ophthalmologists who performed their PDT treatments. In addition, nearly all of these patients were taking one or more additional vitamin supplements, such as lutein, Coenzyme Q10, and/or the AREDS formulation (all of which are commonly recommended by friends, relatives, and physicians), and at least one patient (identified as patient one, below) also received a steroid injection as part of their PDT therapy. […] Responses from patients who had been taking zeaxanthin for at least a month prior to a PDT treatment include the following examples: […]

poultry = conditions: compared against preparation of dietary 3R,3′R stereoisomer; test in Spain; cited from earlier work
[4] = test system: inflammatory chorioretinal diseases; conditions: in vivo; cited from earlier work
[5] = test system: vascular endothelial growth factor (VEGF); conditions: verteporfin-laser treatment; cited from earlier work
[6] = right eye, January 2004, six months after PDT
[7] = right eye, October 2003, three months after PDT, zeaxanthin 20 mg/day
[8] = Patient one, ZX from June 2004, first and only PDT about 2 months later, also steroid injection

Chain of Pi isoform of glutathione-S-transferase (GSTP1) (P09211 whole entry, canonical isoform): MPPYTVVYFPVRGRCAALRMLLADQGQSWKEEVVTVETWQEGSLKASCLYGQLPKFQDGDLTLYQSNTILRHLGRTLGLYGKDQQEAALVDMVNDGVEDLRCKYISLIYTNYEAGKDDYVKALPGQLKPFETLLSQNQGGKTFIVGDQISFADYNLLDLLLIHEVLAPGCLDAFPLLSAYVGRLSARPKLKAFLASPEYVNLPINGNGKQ

For `CC1=C(/C=C/C(C)=C/C=C/C(C)=C/C=C/C=C(C)/C=C/C=C(C)/C=C/C2=C(C)C(=O)[C@@H](O)CC2(C)C)C(C)(C)C[C@H](O)C1=O` [astaxanthin], the “effect on inflammatory and similar responses” value (inflammatory cytokines) is listed as “can help reduce inflammatory and similar responses”.
In the case of `CC1=C(/C=C/C(C)=C/C=C/C(C)=C/C=C/C=C(C)/C=C/C=C(C)/C=C/C2=C(C)C(=O)CCC2(C)C)C(C)(C)CCC1=O` [canthaxanthin], the retinal deposition (retina) is listed as “abnormal retinal deposition”.
In the case of `CC1=C[C@H](O)CC(C)(C)[C@H]1/C=C/C(C)=C/C=C/C(C)=C/C=C/C=C(C)/C=C/C=C(C)/C=C/C1=C(C)C[C@@H](O)CC1(C)C` [lutein, reference compound], the “binding affinity of macular enzymes” value [1] is given as “will not bind to lutein with any significant affinity”.
For `CC1=C(/C=C/C(C)=C/C=C/C(C)=C/C=C/C=C(C)/C=C/C=C(C)/C=C/C2=C(C)C[C@@H](O)CC2(C)C)C(C)(C)C[C@H](O)C1` [zeaxanthin], the “pathological changes in animal tests” value [2] is given as “did not cause any pathological changes, of any sort”, the “findings in the eye not previously treated with PDT” value ([3]; left eye, March 2004, patient taking zeaxanthin, no PDT so far) is given as “growth of choroidal neovascularization compared to January 2004” and the “ophthalmologist's assessment of PDT results, as orally reported by the patient” value ([3]; left eye, three months after PDT of March 2004) is given as “results were good”. The “biomicroscopic findings (subretinal hemorrhage)” value [3, 6] was “clearing of the subretinal hemorrhage that was noted along the inferonasal aspect of the treated area”, the fluorescein angiography [3, 6] was “still showed some increased staining in the area where the hemorrhage had cleared” and the “leakage from CNV” value ([3]; right eye, March 2004) was “no new leakage from CNV to suggest the need for any treatment”. The “biomicroscopic findings (subretinal hemorrhage and fluid)” value [3, 7] was “clearing of much of the subretinal hemorrhage along the nasal aspect of the posterior pole with no new subretinal fluid”, the fluorescein angiography [3, 7] was “no fluorescein leakage to suggest the need for any additional treatment at this time except at the inferonasal aspect of the treated area” and the “ophthalmologist's assessment of the PDT results” value ([3]; right eye, three months after first PDT, zeaxanthin 20 mg/day) was “much better than expected; also recorded: far better than expected”. For the same molecule, the “need for further PDT sessions (doctor's statement)” value (wet macular degeneration; Patient four, ZX begun before second PDT session, first session without ZX did not stabilize) was “appeared to not need any more PDT sessions”, the “need for further PDT treatments (doctor's statement)” value (wet macular degeneration; [8]) was “may not need to have any more treatments” and the “results of PDT treatment” value (wet macular degeneration; [8]) was “results were good”. For the same molecule, the “ophthalmologist's assessment of eyes at followup” value (wet macular degeneration; Patient three, October 2004) was “their eyes had stabilized”, the “doctor's assessment of eyes at followup” value (wet macular degeneration; Patient three, ZX for some months before second PDT in May 2004, late June 2004) was “their eyes had gotten better, and appeared to be stable” and the “vision in PDT-treated left eye” value (wet macular degeneration; Patient two, 10 mg/day ZX from May 2004, four PDT sessions April-October 2004, October 2004) was 20/30. For the same molecule, the “patient's description of their results” value (wet macular degeneration; Patient two, 10 mg/day ZX, October 2004) was “super-good”, the “ophthalmologist's assessment of sight” value (wet macular degeneration; Patient two, 10 mg/day ZX, PDT on left eye) was “sight restored and improved” and the adverse side effects (wet macular degeneration; all patients surveyed) was “did not cause any adverse side effects of any sort”. For the same molecule, the “interference with efficacy of PDT treatment” value (wet macular degeneration; all patients surveyed) was “did not interfere with the efficacy of PDT treatment”, the overall benefit (wet macular degeneration; in at least some patients) was “provided at least some benefits” and the “condition of PDT-treated eye (doctor's statement)” value (wet macular degeneration; parent of respondent OD, PDT on right eye after three months of ZX) was “appeared to be stable”. For the same molecule, the “condition of fellow eye with dry macular degeneration (respondents' statements)” value (wet macular degeneration; several respondents with PDT in one eye only) was “remain stable, or in some cases improve” and the “binding affinity of macular enzymes” value [1] was “relatively high affinity”.
For meso-zeaxanthin, the “performance as colour additive for poultry” value (poultry) is given as “did not perform satisfactorily”.
For verteporfin, the “performance relative to verteporfin treatment of wet macular degeneration” value [4] is listed as “tended to perform better, and more effectively” and the “release of hormones that increase blood vessel growth (VEGF)” value [5] is listed as “stimulates, rather than suppresses”.
